Measurements: patent US9695155B2, “Herbicidal substituted pyrimidinyloxy benzene compounds” (E. I. DU PONT DE NEMOURS AND COMPANY, priority 2013, dated 2017)

Tests used:
barnyardgrass [1] = test: Test B flooded paddy test; type: in vivo, Echinochloa crus-galli; details: Flood, 250 g ai/ha; 0 to 100 scale where 0 is no effect and 100 is complete control
In short: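 Post-emergence paddy-water application at the 2-leaf stage, with 3 cm flood kept for the whole test. Response was judged visually relative to controls after 13 to 15 greenhouse days, 0 indicating no effect and 100 complete control.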

pigweed = test: Test A postemergence; type: in vivo, Amaranthus retroflexus; details: 0 to 100 scale where 0 is no effect and 100 is complete control; for Pigweed plant response rating: 125 g ai/ha; for Plant response rating, Pigweed: 500 g ai/ha
In short: (§1)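 Compounds in non-phytotoxic solvent with surfactant applied as soil spray preemergence, or postemergence to plants 2-10 cm at one- to two-leaf stage, in loam/sand. After approximately 10 days in greenhouse, injury rated visually versus untreated controls, 0 (no effect) to 100 (complete control).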

velvetleaf = test: Test C postemergence; type: in vivo, Abutilon theophrasti; details: for Velvetleaf plant response rating: 31 g ai/ha; for Velvetleaf plant response rating / Plant response rating, Velvetleaf: scale 0 to 100 (0 no effect, 100 complete control)
In short: (§2)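 Rated visually on 0–100 (100 = complete control) after 13–15 days under glass. Treatments went onto freshly seeded loam/sand soil or onto emerged plants at the 1- to 4-leaf stage, using a surfactant-containing solvent formulation.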

barnyardgrass [2] = test: Test C preemergence; type: in vivo, Echinochloa crus-galli; details: for Barnyardgrass plant response rating: preemergence; for Plant response rating, Barnyardgrass: Preemergence, 62 g ai/ha, scale 0 to 100, 0 no effect, 100 complete control
In short: as §2

soybean [3] = test: Test C postemergence; type: in vivo, Glycine max; details: for Soybean plant response rating: 31 g ai/ha; for Soybean plant response rating / Plant response rating, Soybean: scale 0 to 100 (0 no effect, 100 complete control)
In short: as §2

giant foxtail = test: Test A preemergence; type: in vivo, Setaria faberii; details: for Foxtail, Giant plant response rating (0 to 100 scale): 125 g ai/ha; for Foxtail, Giant plant response rating: 500 g ai/ha, 0 to 100 scale where 0 is no effect and 100 is complete control
In short: as §1

soybean [4] = test: Test C preemergence; type: in vivo, Glycine max; details: for Soybean plant response rating: preemergence; for Plant response rating, Soybean: Preemergence, 62 g ai/ha, scale 0 to 100, 0 no effect, 100 complete control
In short: as §2

waterhemp = test: Test C preemergence; type: in vivo, Amaranthus rudis; details: for Waterhemp plant response rating: preemergence; for Plant response rating, Waterhemp: Preemergence, 62 g ai/ha, scale 0 to 100, 0 no effect, 100 complete control
In short: as §2

galium [5] = test: Test C postemergence; type: in vivo, Galium aparine; details: for Galium plant response rating: 31 g ai/ha; for Galium plant response rating / Plant response rating, Galium: scale 0 to 100 (0 no effect, 100 complete control)
In short: as §2

morningglory = test: Test C preemergence; type: in vivo, Ipomoea coccinea; details: for Morningglory plant response rating: preemergence; for Plant response rating, Morningglory: Preemergence, 62 g ai/ha, scale 0 to 100, 0 no effect, 100 complete control
In short: as §2

chickweed = test: Test C postemergence; type: in vivo, Stellaria media; details: for Chickweed plant response rating: 31 g ai/ha; for Chickweed plant response rating / Plant response rating, Chickweed: scale 0 to 100 (0 no effect, 100 complete control)
In short: as §2

oilseed rape = test: Test C preemergence; type: in vivo, Brassica napus; details: for Oilseed Rape plant response rating: preemergence; for Plant response rating, Oilseed Rape: Preemergence, 62 g ai/ha, scale 0 to 100, 0 no effect, 100 complete control
In short: as §2

johnsongrass = test: Test C postemergence; type: in vivo, Sorghum halepense; details: for Johnsongrass plant response rating: 31 g ai/ha; for Johnsongrass plant response rating / Plant response rating, Johnsongrass: scale 0 to 100 (0 no effect, 100 complete control)
In short: as §2

barnyardgrass [6] = test: Test A postemergence; type: in vivo, Echinochloa crus-galli; details: 0 to 100 scale where 0 is no effect and 100 is complete control; for Barnyardgrass plant response rating: 125 g ai/ha; for Plant response rating, Barnyardgrass: 500 g ai/ha
In short: as §1

galium [7] = test: Test C preemergence; type: in vivo, Galium aparine; details: for Galium plant response rating: preemergence; for Plant response rating, Galium: Preemergence, 62 g ai/ha, scale 0 to 100, 0 no effect, 100 complete control
In short: as §2

[8] = postemergence, visual rating, 13 to 15 days
[9] = 125 g ai/ha, postemergence, visual rating
[10] = Postemergence, 62 g ai/ha, 13 to 15 days
[11] = 125 g ai/ha, scale 0 (no effect) to 100 (complete control)
[12] = 250 g ai/ha, scale 0 (no effect) to 100 (complete control)
[13] = 16 g ai/ha, postemergence, 0 is no effect, 100 is complete control
[14] = 16 g ai/ha, scale 0 to 100 (0 no effect, 100 complete control)

With `N#Cc1cccc(Oc2ncc(Cl)cn2)c1-n1cc(I)cn1` [Compound 204] the “Plant response rating, Barnyardgrass” value (barnyardgrass [1]) was 20, the “Pigweed plant response rating” value (pigweed) was 100 and the “Plant response rating, Pigweed” value (pigweed) was 100. The “Velvetleaf plant response rating” value (velvetleaf; [8]) was 35, the “Plant response rating, Velvetleaf” value (velvetleaf; [9]) was 60 and the “Plant response rating (0 to 100), Velvetleaf” value (velvetleaf; 250 g ai/ha, postemergence) was 70. For the same molecule, the “Plant response rating, Velvetleaf” value (velvetleaf; [10]) was 40, the “Barnyardgrass plant response rating” value (barnyardgrass [2]; [11]) was 100 and the “Barnyardgrass plant response rating” value (barnyardgrass [2]; [12]) was 100. The “Plant response rating, Barnyardgrass” value (barnyardgrass [2]) was 95, the “Soybean plant response rating” value (soybean [3]; [8]) was 70 and the “Plant response rating, Soybean” value (soybean [3]; [9]) was 95. The “Plant response rating (0 to 100), Soybean” value (soybean [3]; 250 g ai/ha, postemergence) was 95, the “Plant response rating, Soybean” value (soybean [3]; [10]) was 95 and the “Foxtail, Giant plant response rating (0 to 100 scale)” value (giant foxtail) was 100. The “Foxtail, Giant plant response rating” value (giant foxtail) was 100, the “Soybean plant response rating” value (soybean [4]; [11]) was 65 and the “Soybean plant response rating” value (soybean [4]; [12]) was 80. For the same molecule, the “Plant response rating, Soybean” value (soybean [4]) was 35, the “Waterhemp plant response rating” value (waterhemp; [11]) was 100 and the “Waterhemp plant response rating” value (waterhemp; [12]) was 98. The “Plant response rating, Waterhemp” value (waterhemp) was 100, the “Galium plant response rating” value (galium [5]; [8]) was 70 and the “Plant response rating, Galium” value (galium [5]; [9]) was 75. The “Plant response rating (0 to 100), Galium” value (galium [5]; 250 g ai/ha, postemergence) was 100, the “Plant response rating, Galium” value (galium [5]; [10]) was 75 and the “Morningglory plant response rating” value (morningglory; [11]) was 98. The “Morningglory plant response rating” value (morningglory; [12]) was 98, the “Plant response rating, Morningglory” value (morningglory) was 98 and the “Chickweed plant response rating” value (chickweed; [8]) was 75. The “Plant response rating, Chickweed” value (chickweed; [9]) was 98, the “Plant response rating (0 to 100), Chickweed” value (chickweed; 250 g ai/ha, postemergence) was 100 and the “Plant response rating, Chickweed” value (chickweed; [10]) was 95. For the same molecule, the “Oilseed Rape plant response rating” value (oilseed rape; [11]) was 98, the “Oilseed Rape plant response rating” value (oilseed rape; [12]) was 100 and the “Plant response rating, Oilseed Rape” value (oilseed rape) was 95. For the same molecule, the “Johnsongrass plant response rating” value (johnsongrass; [8]) was 5, the “Plant response rating, Johnsongrass” value (johnsongrass; [9]) was 10 and the “Plant response rating (0 to 100), Johnsongrass” value (johnsongrass; 250 g ai/ha, postemergence) was 30. The “Plant response rating, Johnsongrass” value (johnsongrass; [10]) was 5, the “Barnyardgrass plant response rating” value (barnyardgrass [6]) was 80 and the “Plant response rating, Barnyardgrass” value (barnyardgrass [6]) was 90. The “Galium plant response rating” value (galium [7]; [11]) was 100, the “Galium plant response rating” value (galium [7]; [12]) was 100 and the “Plant response rating, Galium” value (galium [7]) was 100.
In the case of `N#Cc1cnn(-c2c(Oc3ncc(Cl)cn3)cccc2C(F)F)c1` [Compound 236], the “Plant response rating, Barnyardgrass” value (barnyardgrass [1]) is reported as 30, the “Pigweed plant response rating” value (pigweed) is reported as 100 and the “Plant response rating, Pigweed” value (pigweed) is reported as 100. For the same molecule, the “Plant response rating (0 to 100), Velvetleaf” value (velvetleaf; [13]) was 55, the “Velvetleaf plant response rating” value (velvetleaf; [8]) was 65 and the “Plant response rating, Velvetleaf” value (velvetleaf; [9]) was 80. For the same molecule, the “Plant response rating, Velvetleaf” value (velvetleaf; [10]) was 85, the “Barnyardgrass plant response rating” value (barnyardgrass [2]; [14]) was 10 and the “Barnyardgrass plant response rating” value (barnyardgrass [2]; [11]) was 100. For the same molecule, the “Plant response rating, Barnyardgrass” value (barnyardgrass [2]) was 98, the “Plant response rating (0 to 100), Soybean” value (soybean [3]; [13]) was 60 and the “Soybean plant response rating” value (soybean [3]; [8]) was 75. For the same molecule, the “Plant response rating, Soybean” value (soybean [3]; [9]) was 95, the “Plant response rating, Soybean” value (soybean [3]; [10]) was 85 and the “Foxtail, Giant plant response rating (0 to 100 scale)” value (giant foxtail) was 100. The “Foxtail, Giant plant response rating” value (giant foxtail) was 100, the “Soybean plant response rating” value (soybean [4]; [14]) was 35 and the “Soybean plant response rating” value (soybean [4]; [11]) was 95. The “Plant response rating, Soybean” value (soybean [4]) was 90, the “Waterhemp plant response rating” value (waterhemp; [14]) was 98 and the “Waterhemp plant response rating” value (waterhemp; [11]) was 100. For the same molecule, the “Plant response rating, Waterhemp” value (waterhemp) was 98, the “Plant response rating (0 to 100), Galium” value (galium [5]; [13]) was 60 and the “Galium plant response rating” value (galium [5]; [8]) was 75. The “Plant response rating, Galium” value (galium [5]; [9]) was 85, the “Plant response rating, Galium” value (galium [5]; [10]) was 80 and the “Morningglory plant response rating” value (morningglory; [14]) was 0. The “Morningglory plant response rating” value (morningglory; [11]) was 98, the “Plant response rating, Morningglory” value (morningglory) was 55 and the “Plant response rating (0 to 100), Chickweed” value (chickweed; [13]) was 40. For the same molecule, the “Chickweed plant response rating” value (chickweed; [8]) was 50, the “Plant response rating, Chickweed” value (chickweed; [9]) was 50 and the “Plant response rating, Chickweed” value (chickweed; [10]) was 65. For the same molecule, the “Oilseed Rape plant response rating” value (oilseed rape; [14]) was 80, the “Oilseed Rape plant response rating” value (oilseed rape; [11]) was 100 and the “Plant response rating, Oilseed Rape” value (oilseed rape) was 100. For the same molecule, the “Plant response rating (0 to 100), Johnsongrass” value (johnsongrass; [13]) was 10, the “Johnsongrass plant response rating” value (johnsongrass; [8]) was 25 and the “Plant response rating, Johnsongrass” value (johnsongrass; [9]) was 20. The “Plant response rating, Johnsongrass” value (johnsongrass; [10]) was 15, the “Barnyardgrass plant response rating” value (barnyardgrass [6]) was 100 and the “Plant response rating, Barnyardgrass” value (barnyardgrass [6]) was 100. The “Galium plant response rating” value (galium [7]; [14]) was 90, the “Galium plant response rating” value (galium [7]; [11]) was 100 and the “Plant response rating, Galium” value (galium [7]) was 100.
